# Data from patent US9682908B2, “Method for producing butanol using extractive fermentation” (BUTAMAX ADVANCED BIOFUELS LLC, priority 2013, dated 2017).
# Where two headings read alike, the source gives them in different places.
# Key:
# [1] = Isobutanol partitioning between solvent and water (Kd, butanol partition coefficient)
# [2] = system: genetically modified isobutanolagen yeast strain PNY2310; format: cell-based; conditions: for Glucose: Example 9, With Solvent
# [3] = Equilibrium moisture content of solvent; format: physicochemical; conditions: Table 1
# Text: The term “moisture content” as used herein refers to the equilibrium saturation of water contained by the solvent, whether or not product alcohol, e.g., isobutanol is present. At times the term “equilibrium” is used in conjunction with “moisture content” to indicate “moisture content” is related to a particular set of conditions, e.g., temperature, pressure, and so on. As will, be apparent, moisture content commonly refers to a maximum amount of water that can be dissolve by the solvent/solvent mixture given a certain set of conditions.
# While the solvent mixture or portions thereof can be immiscible in water, e.g., on the order of 10^−7, in some instances one or more of the solvents can be comparatively weakly miscible in water. It is also to be appreciated, that water can be miscible (e.g., somewhat miscible) in the solvent mixture and/or miscible in one or more solvents included in the solvent mixture. COFA in some examples can absorb moisture, or water, such that the COFA is “wet”. A solvent's tendency to absorb moisture, e.g., act as a solvent, in some examples, can differ from that solvent's ability to solvate in water, e.g., its hydrophobicity. A table of various solvents and their respective characteristics is reproduced directly below.
# [4] = system: butanologen; experiment: Biocompatibility with a butanologen (discussion of examples); format: cell-based
# [5] = system: Sacchromyces Cerevisiae; conditions: in vitro; Bennis et al. 2004; cited from earlier work
# [6] = system: genetically modified isobutanologen yeast strain; experiment: Biocompatibility shake flask, OD and glucose (Examples 2, 3); format: cell-based; conditions: for Glucose / OD: Example 3, With Solvent
# [7] = system: genetically modified isobutanolagen yeast strain (PNY2141); format: cell-based; conditions: for Glucose, gpl Grams per Liter / OD: With solvent
# [8] = system: ethanol red yeast strain; experiment: Biocompatibility shake flask, glucose (Example 12); format: cell-based
# [9] = system: naturally occurring ethanologen yeast strain; experiment: Biocompatibility shake flask, glucose uptake (Example 1A); format: cell-based; conditions: 32° C.
# [10] = aqueous 2.0 wt % isobutanol, half its mass of solvent
# [11] = aqueous 2.0 wt % isobutanol, half its mass of solvent (5 g/2.5 g or 1 g/0.5 g), HPLC
# [12] = 10 ml aqueous 6 wt % isobutanol + 1 ml solvent
# [13] = 10 ml aqueous 6 wt % isobutanol + 1 ml solvent, gas chromatography
# [14] = aqueous 2.0 wt % isobutanol, equal mass of solvent
# [15] = aqueous 2.0 wt % isobutanol, equal mass of solvent (3 g/3 g or 5 g/5 g), HPLC
# [16] = time 0 hr, 10 ml solvent on 20 ml medium, 32° C.
compound,measurement,setting,value
"CCCCN(CCCC)C(=O)N(CCCC)CCCC [Tetrabutylurea, tetrabutylurea]","isobutanol in organic layer, calculated by mass balance",[1]; [10],3.06 wt %
same,mass partitioning coefficient,[1]; [10],7.35
same,isobutanol in aqueous layer,[1]; [11],0.417 wt %
same,glucose concentration versus flask without solvent,[2]; Example 9,No significant difference
same,Glucose,"[2]; time 0 hr, 0.5 OD PNY2310, 10 ml solvent on 20 ml medium, 32° C.",28 g/L
same,Glucose,[2]; time 4 hr,25 g/L
same,Glucose,[2]; time 8 hr,14 g/L
same,Glucose,[2]; time 12 hr,0 g/L
same,Moisture Content (wt %),[3],0.9 wt %
same,biocompatibility with a butanologen (found in testing),[4],biocompatible with a butanologen
Cc1ccc(C(C)C)c(O)c1 [thymol],MFC (minimum fungal concentration),[5],1800 µM
same,"MIC, minimum inhibitory concentration",[5],1500 µM
"CC(CC(C)(C)C)CC(C)(C)C [isododecane, 2,2,4,6,6-pentamethylheptane]",isobutanol in aqueous layer,[1]; [12],1.39 mole %
same,isobutanol in organic layer,[1]; [12],17.24 mole %
same,mass partitioning coefficient,[1]; [12],1.525
same,molar partitioning coefficient,[1]; [12],12.4
same,isobutanol in aqueous layer,[1]; [13],5.45 wt %
same,isobutanol in organic layer,[1]; [13],8.31 wt %
same,"isobutanol in organic layer, calculated by mass balance",[1]; [14],0.40 wt %
same,mass partitioning coefficient,[1]; [14],0.25
same,isobutanol in aqueous layer,[1]; [15],1.60 wt %
same,growth (glucose uptake and OD) versus flask without solvent,[6]; Example 3,No significant difference in growth
same,Glucose,[6]; time 0 hr,32 g/L
same,OD,"[6]; time 0 hr, 32 g/liter glucose, 10 ml solvent on 20 ml medium, 32° C.",0.5
same,Glucose,[6]; time 7 hr,32 g/L
same,OD,[6]; time 7 hr,0.9
same,Glucose,[6]; time 13 hr,25 g/L
same,OD,[6]; time 13 hr,1.6
same,Glucose,[6]; time 23 hr,5 g/L
same,OD,[6]; time 23 hr,4.9
same,Glucose,[6]; time 29 hr,0.1 g/L
same,OD,[6]; time 29 hr,5.0
same,Moisture Content (wt %),[3],<0.01 wt %
same,biocompatibility with a butanologen (found in testing),[4],biocompatible with a butanologen
"CC(C)c1cccc(C(C)C)c1 [1,3-diisopropylbenzene]",consumption of glucose in presence of solvent,[7]; Example 6A,No significant consumption of glucose
same,"Glucose (grams per liter, gpl)","[7]; Example 6A, time 0 hours, 1.0 OD PNY2141, 10 ml solvent on 20 ml medium, 32° C.",30 gpl
same,"Glucose (grams per liter, gpl)","[7]; Example 6A, time 6 hours",30 gpl
same,"Glucose (grams per liter, gpl)","[7]; Example 6A, time 11 hours",30 gpl
same,"Glucose (grams per liter, gpl)","[7]; Example 6A, time 16 hours",28 gpl
same,"Glucose (grams per liter, gpl)","[7]; Example 6A, time 24 hours",29 gpl
same,biocompatibility with a butanologen (found in testing),[4],not to be biocompatible
"Cc1ccc(C(C)C)cc1O [Carvacrol, carvacrol]","isobutanol in organic layer, calculated by mass balance",[1]; [10],3.42 wt %
same,mass partitioning coefficient,[1]; [10],15.5
same,isobutanol in aqueous layer,[1]; [11],0.22 wt %
same,Moisture Content (wt %),[3],2 wt %
CCCCC(CC)COP(=O)(OCC(CC)CCCC)OCC(CC)CCCC (stereo not drawn) [tris(2-ethylhexyl) phosphate],inhibition in glucose consumption,[8]; Example 12,No significant inhibition in glucose consumption
same,"Glucose (grams per liter, gpl)","[8]; time 0 hours, 1.1 OD, 10 ml solvent on 20 ml medium, 32° C.",17 gpl
same,"Glucose (grams per liter, gpl)",[8]; time 5 hours,0 gpl
same,"Glucose (grams per liter, gpl)",[8]; time […],11.5 gpl
"CCN(CC)C(=O)c1cccc(C)c1 [DEET, diethyl m-toluamide]","isobutanol in organic layer, calculated by mass balance",[1]; [10],3.17 wt %
same,mass partitioning coefficient,[1]; [10],9.2
same,isobutanol in aqueous layer,[1]; [11],0.34 wt %
triisobutylene,growth (OD and glucose) versus flask without solvent,"[7]; Example 1B, PNY2141, 32° C.",Some impedance to growth
same,"Glucose, gpl Grams per Liter",[7]; [16],28 gpl
same,OD,[7]; [16],0.5
same,"Glucose, gpl Grams per Liter",[7]; time 6 hr,27 gpl
same,OD,[7]; time 6 hr,0.6
same,"Glucose, gpl Grams per Liter",[7]; time 10 hr,26 gpl
same,OD,[7]; time 10 hr,0.8
same,"Glucose, gpl Grams per Liter",[7]; time 19 hr,22 gpl
same,OD,[7]; time 19 hr,1.6
same,"Glucose, gpl Grams per Liter",[7]; time 23 hr,21 gpl
same,OD,[7]; time 23 hr,2.1
same,"Glucose, gpl Grams per Liter",[7]; time 30 hr,14 gpl
same,OD,[7]; time 30 hr,2.8
same,"Glucose, gpl Grams per Liter",[7]; time 35 hr,10 gpl
same,OD,[7]; time 35 hr,3.4
same,isobutanol in aqueous layer,[1]; [12],1.33 mole %
same,isobutanol in organic layer,[1]; [12],18.39 mole %
same,mass partitioning coefficient,[1]; [12],1.71
same,molar partitioning coefficient,[1]; [12],13.8
same,isobutanol in aqueous layer,[1]; [13],5.28 wt %
same,isobutanol in organic layer,[1]; [13],9.03 wt %
same,"isobutanol in organic layer, calculated by mass balance",[1]; [14],0.47 wt %
same,mass partitioning coefficient,[1]; [14],0.31
same,isobutanol in aqueous layer,[1]; [15],1.53 wt %
same,glucose uptake versus flask without solvent,[9]; 4 hours,No significant difference in glucose uptake
same,glucose in aqueous phase,"[9]; after 4 hours, start 21 g/liter glucose, 0.5 OD, 10 ml solvent on 20 ml medium",less than 0.1 g/liter
"CC(CC(C)(C)C)CC(C)(C)CC(C)(C)C (stereo not drawn) [Isohexadecane, 2,2,4,4,6,8,8-heptamethylnonane]",Moisture Content (wt %),[3],<0.01 wt %
CC(C)CC(C)CC(O)CC(C)C (stereo not drawn) [Isododecanol],"isobutanol in organic layer, calculated by mass balance",[1]; [10],2.87 wt %
same,mass partitioning coefficient,[1]; [10],5.42
same,isobutanol in aqueous layer,[1]; [11],0.53 wt %
same,Moisture Content (wt %),[3],0.2 wt %
CCCCC(CC)CO (stereo not drawn) [2-ethylhexanol],Moisture Content (wt %),[3],2 wt %
